What was measured:
SET-2 cells = test: Cell proliferation assay (CCK8); assay type: cell-based; conditions: FIG. 4 legend
Experimental: (§1) This example describes inhibition of in vitro cell proliferation with exemplary HDAC11 inhibitors. The effects of selective HDAC11 inhibitors on cell proliferation were measured in cell lines containing the MPN-associated mutations MPL W515L (Ba/F3 MPL W515L) and JAK2 V617F (Ba/F3 JAK2 V617F, HEL 92.1.7, SET-2). HEL 92.1.7 and SET-2 cells were purchased from the ATCC and DSMZ, respectively. Ba/F3 cells overexpressing either MPLW515L or JAK2V617F, which were cytokine independent, were generated by transforming Ba/F3 cells with retroviruses overexpressing either MPL W515L or JAK2V617F. For survival assays, cells were seeded in 96-well plates at the density of 0.1 million/ml with addition of indicated compounds and incubated at 37° C. for 48h. CCK8 solution (Dojindo, Rockville, Md.) was added and absorbance at 450 nm was measured after 3 hours of incubation. Readings were normalized to dimethylsulfoxide (DMSO)-treated wells.

HEL 92.1.7 cells = test: Cell proliferation assay (CCK8); assay type: cell-based; conditions: 48h
Experimental: as §1

`N#CC[C@H](C1CCCC1)n1cc(-c2ncnc3[nH]ccc23)cn1` [ruxolitinib, reference compound] was tested, and the “growth of SET-2 cell line” value (SET-2 cells) was “inhibited” and the “growth of the HEL 92.1.7 cell line” value (HEL 92.1.7 cells) was “inhibited”.

Source: US10538496B2, “Methods using HDAC11 inhibitors” (FORMA Therapeutics, Inc., priority 2016, dated 2020)
